Results: patent publication US9005646B2, “Compositions for repair of defects in tissues, and methods of making the same” (LifeNet Health, priority 2005, dated 2015)

Legend:
[1] = Semi-quantitative analysis of handling characteristics post-gamma irradiation; assay type: physicochemical; settings: putty/paste tissue repair composition; sterilizing dose of gamma irradiation; 100 mM where radioprotectant present
Excerpt: To meet the current U.S. FDA regulatory standards and market expectations, a product must be sterile to a sterility assurance level of 1×10^−6 (SAL). […] The composition crumbled apart releasing the bone matrix.
In order to manufacture a tissue repair composition, in the form of a putty/paste, having desirable handling characteristics post-irradiation at dose designed to achieve a SAL of 1×10^−6, it was thought that the addition of one or more radioprotectants to the composition would produce a product with the desirable handling properties because the radioprotectant will act as a free radical scavenger during the irradiation sterilization process and would protect the handling characteristics of the putty/paste composition. An addition facet was that the radioprotectant must not negatively interfere with the biological activity over time (shelf life).
(§1) Multiple radioprotectants (Table 1) were investigated over a range of concentrations and the handling characteristics of the resultant products were semi-quantitatively analyzed post-gamma irradiation. Those products that passed the semi-quantitative analysis went on to be implanted into athymic nude mice as a bioassay to assess osteoinductivity.

athymic nude mice = test: Osteoinductivity bioassay of irradiated compositions with radioprotectant, implanted into athymic nude mice; assay type: in vivo; settings: for Passed Osteoinductivity: radioprotectant added to homogenized fascia slurry of tissue repair composition, post-gamma irradiation, implanted into athymic nude mice
Excerpt: as §1
The method to add the radioprotectant was consistent for each radioprotectant investigated. The slurry was made as described in example 1 (heating and blending cycles) and once completed, the radioprotectant of choice was added to the slurry in the form it was supplied from the manufacturer (powder or liquid).

Compound	handling characteristics after gamma irradiation [1]	impact on osteoinductivity (athymic nude mice; 100 mM radioprotectant in composition, after sterilizing dose of gamma irradiation)	Passed Osteoinductivity (athymic nude mice)
N=C(N)NN [Aminoguanidine]	no negative impact	no negative impact	Yes
L-Ascorbic Acid 2-phosphate sesquimagnesium salt			Yes
L-Ascorbic Acid, salt			Yes
